Source: ChEMBL document CHEMBL1201862, “PubChem BioAssay data set” (2004)
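Compound exposure: 48 hours, 5 concentrations, 96-well plates. The concentration for 50% growth inhibition is given as GI50.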 The source made the active and inactive calls. Cut-off read from the data, not from the text of the source: active = GI50 up to about 1.1 µM and inactive = higher.

What was measured:
Assay in all cases: NCI tumour cell line growth inhibition, 48 h
[1] = system: 786-0
[2] = system: A498
[3] = system: A549
[4] = system: EKVX
[5] = system: HCT-116
[6] = system: HCT-15
[7] = system: HOP-62
[8] = system: HT-29
[9] = system: Malme-3M
[10] = system: NCI-H522
[11] = system: OVCAR-4
[12] = system: OVCAR-5
[13] = system: RPMI-8226
[14] = system: RXF 393
[15] = system: SF-268
[16] = system: SK-MEL-2
[17] = system: T47D
[18] = system: U-251
[19] = system: UACC-257
[20] = system: LXFL 529

Row | SMILES | GI50 [1] | GI50 [2] | GI50 [3] | GI50 [4] | GI50 [5] | GI50 [6] [µM] | GI50 [7] | GI50 [8] | GI50 [9] | GI50 [10] | GI50 [11] | GI50 [12] | GI50 [13] | GI50 [14] | GI50 [15] | GI50 [16] | GI50 [17] | GI50 [18] | GI50 [19] | GI50 [20]
1 | Cc1ccc2c(c1C)-c1c(ccc(C)c1C)C(=O)C2=O | 0.358 µM (active) | 1.87 µM (inactive) | 0.887 µM (active) | 2.13 µM (inactive) | 0.361 µM (active) | 0.292 | 1.39 µM (inactive) | 2.36 µM (inactive) | 0.598 µM (active) | 0.148 µM (active) | 0.0459 µM (active) | 1.55 µM (inactive) | 0.193 µM (active) | 0.337 µM (active) | 0.385 µM (active) | 1.19 µM (inactive) | 1.81 µM (inactive) | 0.432 µM (active) | 1.37 µM (inactive) | –
2 | O=c1oc2ccccc2c(Nc2ccc3c(c2)Oc2ccccc2O3)c1[N+](=O)[O-] | 18.9 µM (inactive) | 27 µM (inactive) | 32.4 µM (inactive) | 21.7 µM (inactive) | 31.8 µM (inactive) | 44.1 | 34.9 µM (inactive) | 65.2 µM (inactive) | 23 µM (inactive) | 24.1 µM (inactive) | 23.9 µM (inactive) | 35.6 µM (inactive) | 59.6 µM (inactive) | 17.5 µM (inactive) | 23.7 µM (inactive) | 16.9 µM (inactive) | 28.7 µM (inactive) | 16 µM (inactive) | 30.3 µM (inactive) | –
3 | O=C1[C@@H](c2ccc(Cl)cc2)[C@H]2CC=C[C@H]2N1O | > 100 µM (inactive) | – | > 100 µM (inactive) | > 100 µM (inactive) | – | 91.4 | > 100 µM (inactive) | > 100 µM (inactive) | > 100 µM (inactive) | 71.1 µM (inactive) | – | – | > 100 µM (inactive) | 14.3 µM (inactive) | > 100 µM (inactive) | > 100 µM (inactive) | – | – | > 100 µM (inactive) | > 100 µM (inactive)
4 | CC(=O)Oc1ccc2c(c1)Oc1cc(C(C)=O)ccc1C21OC(=O)c2ccccc21 (stereo not given) | > 100 µM (inactive) | > 100 µM (inactive) | > 100 µM (inactive) | > 100 µM (inactive) | > 100 µM (inactive) | > 100 | 64.6 µM (inactive) | > 100 µM (inactive) | > 100 µM (inactive) | > 100 µM (inactive) | > 100 µM (inactive) | > 100 µM (inactive) | 30.2 µM (inactive) | 39.7 µM (inactive) | 1.8 µM (inactive) | > 100 µM (inactive) | > 100 µM (inactive) | > 100 µM (inactive) | > 100 µM (inactive) | –
5 | Cc1nc2ccc(S(=O)(=O)O)cc2c(=O)n1-c1ccc(C(=O)NN2C(=O)C(Cl)C2c2cccs2)cc1 (stereo not given) | > 100 µM (inactive) | > 100 µM (inactive) | > 100 µM (inactive) | 18.5 µM (inactive) | > 100 µM (inactive) | > 100 | 23.1 µM (inactive) | > 100 µM (inactive) | > 100 µM (inactive) | > 100 µM (inactive) | 24.5 µM (inactive) | > 100 µM (inactive) | > 100 µM (inactive) | > 100 µM (inactive) | 20.7 µM (inactive) | 23.3 µM (inactive) | 31.3 µM (inactive) | > 100 µM (inactive) | > 100 µM (inactive) | –
6 | CC1=C2C(c3ccccc3)(c3ccccc3)C3C=CC2(C=N3)N(C(=O)NC2CCCCC2)C1=O (stereo not given) | 15.4 µM (inactive) | 17.5 µM (inactive) | 16.9 µM (inactive) | 14.8 µM (inactive) | 16 µM (inactive) | 16.4 | 17.5 µM (inactive) | – | 17.4 µM (inactive) | – | 17.6 µM (inactive) | 17.7 µM (inactive) | 15.9 µM (inactive) | – | 17.4 µM (inactive) | – | – | 16.6 µM (inactive) | 17.1 µM (inactive) | 16.6 µM (inactive)
7 | CC(C)(C)c1cc(/C=C(\C#N)C2=NCCO2)cc(C(C)(C)C)c1O | 3.28 µM (inactive) | 3.84 µM (inactive) | 4.44 µM (inactive) | 4.99 µM (inactive) | 3.07 µM (inactive) | 3.29 | 4.3 µM (inactive) | 3.2 µM (inactive) | 7.26 µM (inactive) | 3.2 µM (inactive) | 3.13 µM (inactive) | 2.89 µM (inactive) | 1.86 µM (inactive) | 3.26 µM (inactive) | 4.61 µM (inactive) | 2.75 µM (inactive) | 2.64 µM (inactive) | 3.31 µM (inactive) | 2.64 µM (inactive) | –
8 | COC(=O)c1cc2c(nc1C)-c1ccccc1OS2(=O)=O | 70 µM (inactive) | > 100 µM (inactive) | > 100 µM (inactive) | > 100 µM (inactive) | > 100 µM (inactive) | > 100 | 27.5 µM (inactive) | > 100 µM (inactive) | > 100 µM (inactive) | > 100 µM (inactive) | > 100 µM (inactive) | > 100 µM (inactive) | > 100 µM (inactive) | 32.6 µM (inactive) | 45.5 µM (inactive) | – | – | 70.1 µM (inactive) | > 100 µM (inactive) | > 100 µM (inactive)
9 | O=[N+]([O-])C(=C(N1CCCCC1)N1CCCCC1)/C(Cl)=C(\Cl)[N+](=O)[O-] | 3.42 µM (inactive) | 17.9 µM (inactive) | 19.5 µM (inactive) | 13 µM (inactive) | 2.61 µM (inactive) | 2.17 | 15.6 µM (inactive) | 4.74 µM (inactive) | 2.37 µM (inactive) | 1.76 µM (inactive) | 8.2 µM (inactive) | 17.9 µM (inactive) | 2.18 µM (inactive) | 1.31 µM (inactive) | 12.1 µM (inactive) | 16.9 µM (inactive) | 1.84 µM (inactive) | 18.7 µM (inactive) | 7.71 µM (inactive) | –
10 | N#Cc1c(N2CCCC2)ncn(Cc2ccccc2)c1=S | 36.2 µM (inactive) | 40.6 µM (inactive) | > 100 µM (inactive) | > 79.3 µM (inactive) | > 100 µM (inactive) | > 100 | 40.3 µM (inactive) | > 100 µM (inactive) | > 87.9 µM (inactive) | > 90.4 µM (inactive) | 44.2 µM (inactive) | > 100 µM (inactive) | > 100 µM (inactive) | 30.3 µM (inactive) | 33.6 µM (inactive) | > 100 µM (inactive) | > 86.7 µM (inactive) | 38.9 µM (inactive) | > 100 µM (inactive) | –
11 | O=[N+]([O-])c1c(/C=N/c2ccccc2)oc(-c2ccc3c(c2)OCO3)c1-c1ccc2c(c1)OCO2 | > 100 µM (inactive) | – | > 100 µM (inactive) | – | > 100 µM (inactive) | > 100 | > 100 µM (inactive) | > 100 µM (inactive) | > 100 µM (inactive) | > 100 µM (inactive) | > 100 µM (inactive) | > 100 µM (inactive) | > 100 µM (inactive) | > 100 µM (inactive) | > 100 µM (inactive) | – | – | > 100 µM (inactive) | > 100 µM (inactive) | > 100 µM (inactive)
12 | CN(C)c1ccc(/C=C(\NC(=O)c2ccccc2)c2nn(C)c(=O)o2)cc1 | 41.5 µM (inactive) | > 100 µM (inactive) | > 100 µM (inactive) | > 100 µM (inactive) | > 100 µM (inactive) | > 100 | 18.1 µM (inactive) | 90.8 µM (inactive) | 78.2 µM (inactive) | 17.6 µM (inactive) | 28.9 µM (inactive) | > 100 µM (inactive) | 32 µM (inactive) | > 100 µM (inactive) | 44.1 µM (inactive) | 52.5 µM (inactive) | > 100 µM (inactive) | 24 µM (inactive) | 33 µM (inactive) | –
13 | O=C1C2C(C(=O)N1c1ccccc1)C1(c3ccccc3)CCC2(C(=O)c2ccccc2)O1 (stereo not given) | > 10 µM (inactive) | > 10 µM (inactive) | > 10 µM (inactive) | > 10 µM (inactive) | > 10 µM (inactive) | > 10 | > 10 µM (inactive) | > 10 µM (inactive) | > 10 µM (inactive) | > 10 µM (inactive) | > 10 µM (inactive) | > 10 µM (inactive) | > 10 µM (inactive) | > 10 µM (inactive) | > 10 µM (inactive) | > 10 µM (inactive) | > 10 µM (inactive) | > 10 µM (inactive) | > 10 µM (inactive) | –
14 | c1ccc([B-]23Oc4ccccc4[NH+]2c2ccccc2O3)cc1 (stereo not given) | > 100 µM (inactive) | > 100 µM (inactive) | > 100 µM (inactive) | > 100 µM (inactive) | > 100 µM (inactive) | – | > 100 µM (inactive) | > 100 µM (inactive) | > 100 µM (inactive) | 16.2 µM (inactive) | > 100 µM (inactive) | > 100 µM (inactive) | 23.9 µM (inactive) | > 100 µM (inactive) | > 100 µM (inactive) | – | – | > 100 µM (inactive) | > 100 µM (inactive) | 63.8 µM (inactive)
15 | COC(=O)c1ccc(O)c2nc3c(C=O)c(O)cc(O)c3nc12 [LOMOFUNGIN] | 1.73 µM (inactive) | 1.22 µM (inactive) | 0.396 µM (active) | 1.36 µM (inactive) | 0.0977 µM (active) | 0.22 | 1.36 µM (inactive) | 0.458 µM (active) | 2.07 µM (inactive) | 0.755 µM (active) | 2.76 µM (inactive) | 0.822 µM (active) | 0.811 µM (active) | 7.18 µM (inactive) | 0.428 µM (active) | 2.9 µM (inactive) | 0.397 µM (active) | 0.025 µM (active) | 0.782 µM (active) | –
